Reference: ChEMBL document CHEMBL1201862, “PubChem BioAssay data set” (2004)
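Cells were grown in 96-well plates and exposed to each compound for 48 hours at five concentrations; endpoints were interpolated linearly between bracketing concentrations, or set to the highest concentration if not reached. GI50 = concentration required for 50% inhibition of growth.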 Active and inactive are the calls of the source. Cut-off read from the data, not from the text of the source: active = GI50 up to about 1.1 µM and inactive = higher.

Experiments:
Experiment in all cases: NCI-60 cell line screen, 48 h
KM-20L2 = test system: KM-20L2
M19-MEL = test system: M19-MEL
LXFL 529 = test system: LXFL 529
XF498 = test system: XF498
DMS-114 = test system: DMS-114
RXF 631 = test system: RXF 631
HOP-18 = test system: HOP-18
SNB-78 = test system: SNB-78
DMS-273 = test system: DMS-273

Measured: GI50

CC1=NN(C(=O)c2ccc(Cl)cc2)C(=O)/C1=C/c1ccc(O)cc1
inactive: KM-20L2 > 100 µM | M19-MEL > 100 µM | LXFL 529 > 100 µM | XF498 > 100 µM | DMS-114 > 100 µM

COc1ccc2c(c1)NC1(O)c3ccccc3C(=O)C21O (centres undefined)
inactive: KM-20L2 > 100 µM | M19-MEL > 100 µM | LXFL 529 > 100 µM | XF498 25 µM | RXF 631 > 100 µM | DMS-114 > 100 µM | HOP-18 > 100 µM | SNB-78 > 100 µM | DMS-273 > 100 µM

CCc1cccc(CC)c1NC(=O)C(C#N)C1=C(Cl)C(=O)c2ccccc2C1=O (centres undefined)
inactive: KM-20L2 21.4 µM | M19-MEL 19.1 µM | LXFL 529 16.1 µM | XF498 15.9 µM | RXF 631 16.1 µM | DMS-114 22 µM | HOP-18 15.5 µM | SNB-78 8.15 µM | DMS-273 17.9 µM

O=C1c2ccccc2C(Br)(Br)c2ccccc21
inactive: KM-20L2 > 100 µM | M19-MEL > 31.6 µM | LXFL 529 > 31.6 µM | XF498 29.3 µM | DMS-114 > 31.6 µM | HOP-18 > 31.6 µM | SNB-78 > 100 µM | DMS-273 > 31.6 µM

CC1(C)C(=O)/C=C\C(=O)C(C)(C)C(=O)/C=C\C(=O)C(C)(C)C(=O)/C=C\C(=O)C(C)(C)C(=O)/C=C\C1=O
inactive: KM-20L2 26.6 µM | M19-MEL 20.2 µM | LXFL 529 7.28 µM | XF498 30.3 µM | HOP-18 22.3 µM | SNB-78 17.4 µM | DMS-273 16.8 µM

CC(C)NC(=O)CCN(C(=O)O)S(=O)(=O)c1ccc(NC(=O)c2ccccc2)cc1
inactive: KM-20L2 > 100 µM | M19-MEL > 53.3 µM | LXFL 529 > 93.8 µM | XF498 > 100 µM | RXF 631 > 100 µM | DMS-114 > 39.4 µM | HOP-18 > 100 µM | SNB-78 > 100 µM | DMS-273 > 42.7 µM

Cc1ccccc1/N=C/c1ccc(N(CCC#N)S(=O)(=O)c2ccccc2)cc1
inactive: KM-20L2 > 100 µM | M19-MEL > 100 µM | LXFL 529 > 100 µM | XF498 > 100 µM | RXF 631 > 100 µM | DMS-114 > 100 µM | HOP-18 > 100 µM | SNB-78 > 100 µM | DMS-273 > 100 µM

CC(=O)OCC(=O)[C@@]1(O)CC[C@H]2[C@@H]3CCC4=CC(=O)[C@H](C)C[C@]4(C)[C@H]3[C@@H](O)C[C@@]21C
inactive: KM-20L2 > 100 µM | M19-MEL > 100 µM | XF498 > 100 µM | DMS-114 > 100 µM | HOP-18 > 100 µM | SNB-78 9.77 µM | DMS-273 > 100 µM

COC(=O)CCC(NC(=S)N/N=C/c1ccco1)C(=O)OC (centres undefined)
inactive: KM-20L2 > 100 µM | M19-MEL > 100 µM | LXFL 529 > 100 µM | XF498 > 100 µM | RXF 631 > 100 µM | DMS-114 > 100 µM | HOP-18 > 100 µM | SNB-78 > 100 µM | DMS-273 > 100 µM

NC(=S)/N=C(/c1nc2ccc(Cl)cc2nc1O)C(O)c1ccccc1Cl (centres undefined)
inactive: KM-20L2 > 100 µM | LXFL 529 > 100 µM | XF498 > 100 µM | DMS-114 > 100 µM | HOP-18 33.8 µM | DMS-273 > 100 µM

CN(C)CC1CCC(=C2CCCC2)C1=O (centres undefined)
inactive: KM-20L2 18.7 µM | M19-MEL 16.8 µM | LXFL 529 3.24 µM | XF498 6.84 µM | DMS-114 8.81 µM | HOP-18 16.7 µM | SNB-78 12.6 µM | DMS-273 18.3 µM

COc1ccc2c(c1)[n+]([O-])c(C(=O)CC(=O)C(=O)Nc1cccc(Cl)c1C)c(C)[n+]2[O-]
inactive: KM-20L2 > 100 µM | M19-MEL 42.9 µM | LXFL 529 > 100 µM | HOP-18 > 100 µM | SNB-78 > 100 µM | DMS-273 > 100 µM

O=c1c2ccc(Br)cc2nc(-c2ccccc2)n1NC1OC(CO)C(O)C(O)C1O (centres undefined)
inactive: KM-20L2 > 100 µM | M19-MEL > 100 µM | LXFL 529 > 100 µM | XF498 > 100 µM | DMS-114 > 100 µM | HOP-18 > 100 µM | SNB-78 > 100 µM | DMS-273 > 100 µM

COC1=CC2(C=CC1=O)c1cc(OC)c(OC)cc1CCN2C(=O)c1ccccc1 (centres undefined)
inactive: LXFL 529 > 100 µM | DMS-114 > 100 µM | HOP-18 98.2 µM | SNB-78 > 100 µM | DMS-273 > 100 µM

Cc1ccc2c(c1)C(c1cccc3ccccc13)OC2=O (centres undefined)
inactive: KM-20L2 > 100 µM | M19-MEL > 100 µM | LXFL 529 > 100 µM | RXF 631 27.7 µM | DMS-114 > 100 µM | HOP-18 71.6 µM | DMS-273 > 100 µM

CCCCCC1C2C(=O)NC(=O)C1C(=O)NC2=O (centres undefined)
inactive: KM-20L2 > 100 µM | M19-MEL > 100 µM | LXFL 529 > 100 µM | XF498 > 100 µM | DMS-114 > 100 µM | DMS-273 > 100 µM

CS(=O)(=O)NNS(=O)(=O)c1ccc(Cl)cc1
inactive: KM-20L2 > 100 µM | M19-MEL > 100 µM | LXFL 529 > 100 µM | XF498 > 100 µM | RXF 631 > 100 µM | DMS-114 > 100 µM | DMS-273 > 100 µM

CCOC(=O)c1c(-c2ccccc2)oc(-c2ccccc2)c1C(=O)OCC
inactive: KM-20L2 38.9 µM | M19-MEL 56.4 µM | LXFL 529 34.6 µM | XF498 29.2 µM | DMS-114 > 100 µM | HOP-18 > 100 µM | SNB-78 > 100 µM | DMS-273 > 100 µM

CCCC(O)[C@@]1(CC)CC(C)C(O)(C2(C)C[C@H](C)[C@@H](C(CC)C(=O)C(C)[C@@H](O)[C@H](C)C3OC(O)(C(CC)C(=O)O)[C@@H](C)C(O)C3CC)O2)O1 (some centres undefined)
inactive: XF498 1.19 µM | HOP-18 8.59 µM | SNB-78 2.76 µM
active: KM-20L2 0.276 µM | M19-MEL 0.643 µM | LXFL 529 0.594 µM | RXF 631 < 0.0333 µM | DMS-114 0.0279 µM | DMS-273 0.29 µM

CCCCCCCC1(c2ccc(N)cc2)CCC(=O)NC1=O (centres undefined)
inactive: KM-20L2 33 µM | M19-MEL 37.8 µM | LXFL 529 29.3 µM | XF498 27.2 µM | RXF 631 41 µM | DMS-114 24.2 µM | SNB-78 31.6 µM | DMS-273 26.9 µM

COC(=N)c1csc(C2OC(CO)C(O)C2O)n1 (centres undefined)
inactive: KM-20L2 > 100 µM | M19-MEL > 100 µM | LXFL 529 > 100 µM | XF498 > 100 µM | RXF 631 > 100 µM | DMS-114 > 100 µM | HOP-18 > 100 µM | SNB-78 > 100 µM | DMS-273 > 100 µM

CCN(CC)CCCC(C)Nc1c2ccc(Cl)cc2nc2ccc(OC)cc12 (centres undefined)
inactive: KM-20L2 1.33 µM | M19-MEL 1.76 µM | LXFL 529 1.53 µM | XF498 1.73 µM | RXF 631 1.77 µM | DMS-114 1.7 µM | SNB-78 3.23 µM
active: DMS-273 0.548 µM

Cc1ccc2ccc3ccc(C)nc3c2n1 [NEOCUPROINE]
inactive: KM-20L2 6.24 µM | M19-MEL 3.44 µM | HOP-18 63.4 µM | SNB-78 > 100 µM | DMS-273 2.36 µM
active: LXFL 529 0.679 µM | DMS-114 0.388 µM
